Assay: gradient 5% acetonitrile 3 min, to 50% in 2 min, to 85% in 15 min, held 3 min, 100 µL/min
Conditions: column: Zorbax Extend-C18 2.1 x 50 mm; eluents: water / acetonitrile, 0.1% formic acid
How it was run: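 Over 3 months, pure standards in mixtures of ~100 molecules were run by HPLC coupled to a quadrupole time-of-flight mass spectrometer in positive and negative ionization mode. The column was a Zorbax Extend-C18 (2.1 × 50 mm, 1.8 μm) at 100 μL/min, eluted with water and acetonitrile each holding 0.1% formic acid, with 40 μL dead and 900 μL dwell volumes. Retention time was determined from adduct peaks chosen by software and checked manually.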

| SMILES | RP-LC retention time |
| --- | --- |
| O=C(c1ccccc1Cl)N1CCN(Cc2noc3ccccc23)CC1 | 755 s |
| O=C(NCc1ccc(F)cc1)C1CCN(c2cc(N3CCOCC3)ncn2)CC1 | 607 s |
| O=C(c1cn(-c2cc(N3CCSCC3)ncn2)cn1)N1CCC(Cc2ccccc2)CC1 | 1090 s |
| COc1ccc2c(c1)C1(CCN(S(=O)(=O)c3ccc4c(c3)oc(=O)n4C)C1)C(=O)N2 (centres undefined) | 746 s |
| Cc1ccc(NC(=O)N2CCCC2C(=O)NC(C)C)cc1 (centres undefined) | 694 s |
| O=C(CCn1nnc2cc(-c3noc(Cc4ccc(F)cc4)n3)ccc21)N1CCCC1 | 860 s |
| Cc1cc(N2CCN(S(=O)(=O)c3cc(F)ccc3F)CC2)nc(N2CCCCC2)n1 | 769 s |
| CN(C)[C@@H]1CN(C(=O)c2ccc(Cn3cncn3)o2)CC[C@@H]1CO | 518 s |
| COCC(=O)NC1CCC12CCN(S(=O)(=O)c1c(C)noc1C)CC2 (centres undefined) | 740 s |
| O=C(CCc1c(-c2ccc(Cl)cc2)nc2ccccn12)NCc1ccccn1 | 571 s |
| Cc1cc(C)nc(N2CCN(c3nc(C)cc(C)c3C#N)CC2)n1 | 990 s |
| CCN1CCN(C(=O)CSc2nccnc2Sc2ccccc2)CC1 | 640 s |
| C[C@]12CCC(=O)C[C@@H]1CC[C@@H]1[C@@H]2CC[C@@]2(C)[C@H]1CC[C@]2(C)O | 1050 s |
| Cc1ccn2cc(-c3ccc(NC(=O)CCCc4ccccc4)cc3)nc2n1 | 694 s |
| CCCNC(=O)C1CCN(c2ccc(SCC(=O)NCc3ccc4c(c3)OCO4)nn2)CC1 | 606 s |
| O=P1(N(CCCl)CCCl)NCCCO1 (centres undefined) | 724 s |
| O=C(C1CC=CCC1)N1CCCC(COCc2ccccc2)C1 (centres undefined) | 979 s |
| O=C(Nc1ccc(C2(C(=O)N3CCN(c4ccccc4F)CC3)CCC2)cc1)C1CC1 | 944 s |
| CN1c2cc(F)ccc2C(=O)NC12CCN(C(=O)c1ccc(Cl)cc1)CC2 | 785 s |
| CC(C)c1noc(C2CCCCN2Cc2nc(-c3ccccn3)no2)n1 (centres undefined) | 824 s |
| Cc1sc2ccn(CC(C)C)c(=O)c2c1C(=O)N1CCCCC1 | 837 s |

| SMILES | RP-LC retention time |
| --- | --- |
| COCC(=O)NC1CCC12CCN(C(=O)c1cccs1)CC2 (centres undefined) | 669 s |
| CCn1ccnc1N1CCN(C(=O)c2ccccc2C(F)(F)F)CC1 | 555 s |
| Cc1cc(OCCN2CC2)c2ccccc2n1 | 664 s |
| CC(NC(=O)C1CCN(S(=O)(=O)c2ccc(Cl)cc2)CC1)C(=O)N1CCCc2ccccc21 (centres undefined) | 945 s |
| COc1ccc(CCN2CC(C(=O)O)CC2=O)cc1OC (centres undefined) | 611 s |
| CCCOc1nccnc1NC1CCN(C(=O)c2ccn(CC)n2)CC1 | 722 s |
| Cc1cccc2nnc(N3CCCC(C(=O)NC4CCCC4)C3)n12 (centres undefined) | 597 s |
| CCC(=O)N(C1CCOCC1)C1CCN(S(=O)(=O)c2cc(F)cc(F)c2)CC1 | 856 s |
| CCOc1ccc(S(=O)(=O)N2CCCN(c3ccc(=O)n(-c4ccccc4)n3)CC2)cc1 | 892 s |
| CC(C)c1noc(C2(NC(=O)CCC3CCCC3)CCCCC2)n1 | 1120 s |
| O=C(NCCCc1ccccc1)C1CCN(c2nnc3ccc(Cl)cn23)CC1 | 760 s |
| CCOC(=O)c1ccc(OCCC2CCN(c3ccc(C)nn3)CC2)cc1 | 837 s |
| O=C(NC(c1ccccc1)c1nnc(N2CCOCC2)o1)c1cccc(Cl)c1 (centres undefined) | 796 s |
| COc1cccc(NC(=O)N2CCC3(C2)C(=O)N(C)c2ccc(OC)cc23)c1 (centres undefined) | 746 s |
| COc1ccc(OC)c(Nc2c(-c3ccc(SC)cc3)nc3cnccn23)c1 | 923 s |
| Cn1nc(-c2nc(C3CC3)no2)c2c1CCN(C(=O)Nc1ccc(C(F)(F)F)cc1)C2 | 959 s |
| O=C(Cn1c2c(c3ccccc31)CCC2)NCCn1ncccc1=O | 710 s |
| CN1CC[C@@]23CCCC[C@@H]2[C@@H]1Cc1ccc(O)cc13 | 644 s |
| CCC(C)Nc1nc2c(c(=O)n(C)c(=O)n2C)n1C (centres undefined) | 742 s |
| O=C(Nc1ccccc1F)N1CCC(CCOc2ccccc2)CC1 | 1030 s |

Next, values leading:

| RP-LC retention time | SMILES |
| --- | --- |
| 698 s | CC(C(=O)NCCCN1CCCC1=O)C1CCN(C(=O)c2cc3cc(Cl)ccc3[nH]2)CC1 (centres undefined) |
| 1120 s | O=C(c1cc(F)cc(F)c1)N1CCCC(c2ccnc(-c3cccc(F)c3)n2)C1 (centres undefined) |
| 1040 s | COc1ccc(-c2noc(C3CC(=O)N(c4cc(C)cc(C)c4)C3)n2)cc1 (centres undefined) |
| 965 s | Cc1nn(-c2ccccc2)c(C)c1S(=O)(=O)N1CCC(C(=O)NC2CCCCCC2)CC1 |
| 692 s | CC1=C(c2ccc(C)c(C)c2)S(=O)(=O)N=C1N1CCCN(C(=O)c2ccncc2)CC1 |
| 616 s | Cc1c(C(=O)N2CCOCC2)cc(-c2ccccc2)n1C |
| 988 s | CC(C)c1noc(-c2cc(=O)n(CC(=O)NCc3ccccc3Cl)c3ccccc23)n1 |
| 1040 s | CCOC(=O)c1ccc(NC(=O)c2cn3c4c(ccc(Cl)c4c2=O)OCC3)cc1 |
| 1300 s | Cc1sc(-c2cc(C(F)(F)F)on2)cc1S(=O)(=O)N1CCN(c2ccccc2)CC1 |
| 682 s | CCC1CN2C=Nc3oc(C)c(C(=O)Nc4ccc(F)cc4Br)c3C2=N1 (centres undefined) |
| 986 s | O=C(Cn1cccc1-c1nnc(-c2ccccc2)o1)N1CCc2ccccc2C1 |
| 782 s | COc1ccccc1CC(=O)Nc1cccn2c(C3CCC3)nnc12 |
| 651 s | CCOC(=O)c1c(C)[nH]c(C)c1S(=O)(=O)NCCCN1CCc2ccccc2C1 |
| 578 s | Cc1noc(C)c1CN1CCC(NC(=O)c2cccc(C#N)c2)C1 (centres undefined) |
| 1240 s | Cc1ccc(-c2cc(C(=O)O)c3ccc(Br)cc3n2)cc1C |
| 678 s | Cc1cccc(NS(=O)(=O)c2cc(-c3[nH]ncc3C(=O)N(C)C)oc2C)c1 |
| 847 s | Cc1noc(C)c1S(=O)(=O)NCC(c1cccs1)S(=O)(=O)c1ccc(F)cc1 (centres undefined) |
| 856 s | CN(CCc1noc(COc2ccc(Cl)cc2)n1)C(=O)c1ccco1 |
| 910 s | CN1C(=O)c2cccnc2Sc2cc(NC(=O)c3ccc(C(F)(F)F)cc3)ccc21 |
| 807 s | COc1ccc(NS(=O)(=O)c2[nH]ncc2C(=O)NCc2ccc(SC)cc2)cc1 |
| 838 s | COc1ccc(S(=O)(=O)N2CCCC(C(=O)NCc3ccccn3)C2)cc1Cl (centres undefined) |
| 605 s | COc1ccc(CCNS(=O)(=O)c2c(N)n(C)c(=O)n(C)c2=O)cc1OC |
| 618 s | CCN1CCN(CCNC(=O)c2c(-c3ccc(Br)s3)noc2C)CC1 |
| 1000 s | COC(=O)c1ccc(C2CC(=O)Nc3c(-c4ccc(OC)cc4)csc32)cc1 (centres undefined) |

| RP-LC retention time | SMILES |
| --- | --- |
| 1070 s | Cc1sc(NC(=O)c2cccs2)nc1-c1ccccc1 |
| 1240 s | COc1ccccc1-c1nc(Cn2nnc(-c3nc(-c4cccc(Cl)c4)no3)c2C)c(C)o1 |
| 628 s | CCCCN1CCN(C(=O)CCc2cc3ccc(C)cc3[nH]c2=O)CC1 |
| 840 s | CCc1nc2cc(N3CCC(C(=O)NCc4cccc(F)c4)CC3)cnc2nc1CC |
| 800 s | O=C(NCc1cccc(Br)c1)C1CCN(C(=O)C2Sc3ccccc3NC2=O)CC1 (centres undefined) |
| 832 s | CCOC(=O)C1=C(C)NC2=C(C(=O)CC(C)(C)C2)C1c1ccc([N+](=O)[O-])cc1 (centres undefined) |
| 593 s | COCc1cc(=O)n(CC(=O)Nc2ccc(F)cc2C)c(N)n1 |
| 711 s | CCc1cccc(NC(=O)Cn2nc3cc(C)nc(Nc4ccccc4C)n3c2=O)c1 |
| 726 s | CCN(CC)c1ncc2c(n1)CCC(C(=O)Nc1ccc(OC)c(F)c1)C2 (centres undefined) |
| 907 s | Cc1ccccc1C(=O)N1CC(C(=O)NCC(C)C)C(c2cccc(C(F)(F)F)c2)C1 (centres undefined) |
| 798 s | Cc1ccc(CNC(=O)Cn2ccc3ccc(-c4nnc(C)o4)cc32)cc1 |
| 792 s | COC(=O)c1ccccc1Nc1c(-c2cccc(O)c2)nc2cnccn12 |
| 825 s | Cc1ccc(NC(=O)Cn2nc3c(Oc4ccccc4C)nccn3c2=O)cc1F |
| 1050 s | C=CCN1C(=O)COc2ccc(-c3nc(NC(=O)c4cc(OC)c(OC)c(OC)c4)sc3C)cc21 |
| 909 s | CCc1nnc(-c2cn(CC(=O)Nc3c(Cl)cc(OC)cc3OC)c3ccccc23)o1 |
| 715 s | Clc1cccc(-c2nc3ccccn3c2Nc2ccc3c(c2)OCCO3)c1 |
| 809 s | Cc1ccc(CCNC(=O)c2cc3n(n2)CC(C)(C(=O)NC2CCCC2)N(C)C3=O)cc1 (centres undefined) |
| 848 s | CCc1nc(OCC(=O)Nc2cc(Cl)c(OC)cc2OC)c2ccccc2n1 |
| 755 s | Cc1cc(C)cc(-n2ccnc2SCC(=O)Nc2cc(C)on2)c1 |
| 579 s | COc1ccccc1C(=O)Nc1ccc2nc(N3CCN(CC(=O)N(C)C)CC3)cc(C(=O)O)c2c1 |
| 709 s | Cc1nc2ccc3nc(NC(=O)C4CCN(S(C)(=O)=O)CC4)sc3c2s1 |
| 679 s | Cc1cc(-c2ccc(S(=O)(=O)N3CCC(C(=O)N4CCCC4)CC3)o2)n[nH]1 |
| 1010 s | Cc1nc(OCC(=O)NC2CCCCC2)c2c(-c3ccccc3)noc2n1 |
| 903 s | C=CCN1C(=O)COc2ccc(-c3nc(NC(=O)c4ccco4)sc3C)cc21 |

Source: the METLIN SMRT retention time set (Domingo-Almenara et al. 2019)
